In patent publication US20230053540A1, “TREATMENT OF LIVER INJURY” (Massachusetts Institute of Technology, priority 2019, published 2023):

Tested on: hepatocytes
Test: Seq-Well scRNA-Seq of hepatocytes after APAP overdose (signature scores, DEG vs untreated)
Assay type: in vivo, mouse
Conditions: A6 vs UT

CC(=O)Nc1ccc(O)cc1 [APAP, acetaminophen]
Ddc avg_logFC: −0.3608
Ddc pct.1: 0.241
Ddt avg_logFC: −0.5222
Ddx3x avg_logFC: 0.6569
Ddx3y A6logFC: 0.3395
Ddx5 avg_logFC: 0.5229
Ddx6 avg_logFC: 0.4443
Ddx6 pct.1: 0.527
Ddx21 avg_logFC: 0.7314
Ddx27 A6logFC: 0.2522
Ddx27 avg_logFC: 0.2522
Ddx27 pct.1: 0.286
Deb1 A6logFC: −0.267
Deb1 avg_logFC: −0.267
Deb1 pct.1: 0.274
Dera A6logFC: −0.2674
Dera avg_logFC: −0.2674
Dera pct.1: 0.32
Derl2 A6logFC: −0.3317
Dgkd avg_logFC: 0.3708
Dgkd pct.1: 0.282
Dhrs3 avg_logFC: −0.4676
Dhrs3 pct.1: 0.198
Dhrs4 A6logFC: −0.3321
Diap1 A6logFC: 0.3259
Diap1 avg_logFC: 0.3259
Diap1 pct.1: 0.382
Dio1 avg_logFC: −0.5453
Dio1 pct.1: 0.253
Dkc1 avg_logFC: 0.3258
Dkc1 pct.1: 0.315
Dnaja2 A6logFC: 0.3723
Dnajc5 A6logFC: 0.3265
Dnajc19 A6logFC: −0.316
Dot1l avg_logFC: 0.397
Dot1l pct.1: 0.282
Dsp A6logFC: 0.2655
Dsp avg_logFC: 0.2655
Dsp pct.1: 0.32
Dst avg_logFC: 0.511
Dst pct.1: 0.43
Dusp5 avg_logFC: 0.2964
Dusp6 avg_logFC: 0.5916
Dusp16 avg_logFC: 0.4605
Dusp16 pct.1: 0.372
Dync1h1 A6logFC: 0.3796
Eaf1 avg_logFC: 0.5218
Eaf1 pct.1: 0.427
Ebpl avg_logFC: −0.4503
Ebpl pct.1: 0.196
Eea1 A6logFC: 0.2612
Eea1 avg_logFC: 0.2612
Eea1 pct.1: 0.363
Efhd2 avg_logFC: 0.5838
Egr1 avg_logFC: 0.5846
Egr1 pct.1: 0.589
Eif1a avg_logFC: 0.7953
Eif3a avg_logFC: 0.3147
Eif3a pct.1: 0.542
Eif4a1 A6logFC: 0.2519
Eif4a1 avg_logFC: 0.2519
Eif4a1 pct.1: 0.418
Eif4b A6logFC: 0.3682
Eif4ebp1 A6logFC: 0.2617
Eif4ebp1 avg_logFC: 0.2617
Eif4ebp1 pct.1: 0.387
Eif4g1 avg_logFC: 0.3749
Eif4g1 pct.1: 0.723
Eif4g2 avg_logFC: 0.5597
Eifia A6logFC: 0.3147
Eifib A6logFC: 0.2503
Eific A6logFC: 0.302
Ell2 avg_logFC: 0.4172
Ell2 pct.1: 0.535
Elovl3 avg_logFC: −0.5067
Elovl3 pct.1: 0.568
Elovl5 A6logFC: 0.3352
Elovl5 avg_logFC: 0.3352
Elovl5 pct.1: 0.63
Epas1 avg_logFC: 0.7758
Epb4.1 avg_logFC: 0.5628
Epb4.1 pct.1: 0.537
Erf3b avg_logFC: 0.2503
Erf3b pct.1: 0.449
Errfi1 avg_logFC: 0.3937
Errfi1 pct.1: 0.943
Etnppl avg_logFC: 0.4182
Etnppl pct.1: 0.706
Ets2 avg_logFC: 0.6956
Fabp1 avg_logFC: −1.016
Fabp2 avg_logFC: −0.6156
Fam25c A6logFC: −0.2977
Fam107b avg_logFC: 0.4633
Fam107b pct.1: 0.449
Fam134b avg_logFC: 0.8936
Fam195a A6logFC: −0.2649
Fam214a A6logFC: −0.2658
Fbxo21 A6logFC: −0.2631
Fcgr3 avg_logFC: 0.3082
Fcgr3 pct.1: 0.107
Fdps A6logFC: −0.2663
Fdx1 avg_logFC: −0.6234
Fga avg_logFC: 0.6934
Fgb avg_logFC: 0.6469
Fgg avg_logFC: 0.6153
Fitm1 avg_logFC: −0.3242
Fitm1 pct.1: 0.012
Fkbp5 avg_logFC: 0.5161
Fndc3b avg_logFC: 0.4096
Fndc3b pct.1: 0.315
Fpgs avg_logFC: −0.3494
Fpgs pct.1: 0.146
Ftsj3 A6logFC: 0.2552
Ftsj3 avg_logFC: 0.2552
Ftsj3 pct.1: 0.346
Furin avg_logFC: 0.2536
Furin pct.1: 0.477
Fus A6logFC: 0.3393
Fxyd1 avg_logFC: −0.4799
Fxyd1 pct.1: 0.432
Fxyd5 avg_logFC: 0.2743
G6pc avg_logFC: −0.9601
Gabarap avg_logFC: −0.4425
Gabarap pct.1: 0.518
Gadd45a A6logFC: 0.2829
Gadd45a avg_logFC: 0.2829
Gadd45a pct.1: 0.251
Gadd45gip1 A6logFC: −0.3041
Gamt avg_logFC: −0.5603
Gars A6logFC: 0.2576
Gars avg_logFC: 0.2576
Gars pct.1: 0.334
Gcat A6logFC: −0.2587
Gcat avg_logFC: −0.2587
Gcat pct.1: 0.315
Gcgr A6logFC: −0.2576
Gcgr avg_logFC: −0.2576
Gcgr pct.1: 0.446
Gch1 avg_logFC: −0.2691
Gch1 pct.1: 0.461
Gclc avg_logFC: 1.903
Gclm avg_logFC: 0.2699
Gclm pct.1: 0.695
Gcnt2 avg_logFC: 0.5375
Gda A6logFC: 0.2663
Gda avg_logFC: 0.2663
Gda pct.1: 0.243
Gfra1 avg_logFC: 0.3864
Gfra1 pct.1: 0.599
Gjb2 avg_logFC: 0.6082
Gldc A6logFC: 0.2802
Gldc avg_logFC: 0.2802
Gldc pct.1: 0.465
Glo1 avg_logFC: −0.4066
Glo1 pct.1: 0.513
Glyat avg_logFC: −0.6477
Glyctk A6logFC: 0.2977
Gm4952 avg_logFC: −0.4987
Gm4952 pct.1: 0.198
Gm5424 A6logFC: 0.2698
Gm5424 avg_logFC: 0.2698
Gm5424 pct.1: 0.411
Gm13775 avg_logFC: −1.066
Gm15564 avg_logFC: 1.443
Gm20594 A6logFC: 0.2957
Gm23388 avg_logFC: 0.4162
Gm23388 pct.1: 0.222
Gm23935 avg_logFC: 0.4242
Gm23935 pct.1: 0.878
Gm24187 avg_logFC: 0.4319
Gm24187 pct.1: 0.2
Gm24601 avg_logFC: 0.4684
Gm26917 avg_logFC: 0.6012
Gm26917 pct.1: 0.382
Gm26924 avg_logFC: 1.161
Gn13 avg_logFC: 0.576
Gnai2 A6logFC: 0.2817
Gnai2 avg_logFC: 0.2817
Gnai2 pct.1: 0.391
Gnas A6logFC: 0.2589
Gnas avg_logFC: 0.2589
Gnas pct.1: 0.79
Gne avg_logFC: −0.4251
Gne pct.1: 0.263
Gnl2 avg_logFC: 0.3905
Gnl2 pct.1: 0.384
Gnmt avg_logFC: −0.3334
Gnmt pct.1: 0.962
Golga4 avg_logFC: 0.3521
Gpt2 avg_logFC: 0.5391
Gpx1 avg_logFC: −0.7686
Grn avg_logFC: 0.5408
Gsk3b avg_logFC: 0.4065
Gsk3b pct.1: 0.384
Gsr A6logFC: 0.4128
Gsta1 avg_logFC: 0.4076
Gstk1 A6logFC: −0.2828
Gstk1 avg_logFC: −0.2828
Gstk1 pct.1: 0.351
Gstm3 avg_logFC: −0.4111
Gstm3 pct.1: 0.265
Gstz1 avg_logFC: −0.4641
